We go through eleven molecules from ChEMBL document CHEMBL1201862, “PubChem BioAssay data set” (2004).

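48-hour exposure; five concentrations; linearly interpolated endpoints. GI50 is the concentration that inhibits growth by half.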 The source made the active and inactive calls. Rule as the data show it: active = GI50 up to about 1.1 µM and inactive = higher.

As usually defined, the GI50 is the concentration at which growth is held to half of that of the control.

Some test systems named below: SK-OV-3; IGROV-1; MOLT-4; SN12C; UACC-62; COLO 205; K562; Hs-578T; DU-145; OVCAR-3; PC-3; SF-268; MCF7; SNB-75; SK-MEL-28; HOP-62; MDA-MB-435; RXF 393; NCI/ADR-RES; NCI-H522.
Experiment in all cases: DTP human tumour cell line panel, 48 h

For `N=C(N)SCc1ccc2c(c1)S(=O)(=O)c1ccccc1O2`, the GI50 was 20.8 µM (inactive) in the test on SK-OV-3; 16.4 µM (inactive) in the test with IGROV-1; 19.1 µM (inactive) with MOLT-4; 37.5 µM (inactive) in the test with SN12C; 15.8 µM (inactive) in the test on UACC-62; 29 µM (inactive) in the test with COLO 205. Further, the GI50 was 26.7 µM (inactive) in the test with K562; 22.9 µM (inactive) with Hs-578T; 32.4 µM (inactive) in the test with DU-145; 17 µM (inactive) in the test on OVCAR-3; 17.7 µM (inactive) in the test on PC-3; 33.7 µM (inactive) in the test with SF-268. Besides, the GI50 in the test on MCF7 is 14.5 µM (inactive); with SNB-75, 14.6 µM (inactive); in the test with SK-MEL-28, 16.4 µM (inactive); in the test with HOP-62, 19 µM (inactive); in the test on MDA-MB-435 it was 15.5 µM (inactive); in the test on RXF 393, 21.2 µM (inactive). Besides, the GI50 in the test with NCI/ADR-RES was 39.8 µM (inactive).
For the molecule `CO[C@H]1[C@@H](O)[C@H](O[C@@H]2C[C@H]3CC[C@@H]4[C@H](CC[C@]5(C)[C@@H](C6=CC(=O)OC6)CC[C@]45O)[C@@]3(C)[C@H](OC(C)=O)C2)O[C@@H](C)[C@H]1O`, the GI50 in the test on SK-OV-3 is 2.78 µM (inactive); with IGROV-1 it was 1.46 µM (inactive); in the test on MOLT-4, 0.281 µM (active); in the test on SN12C it was 0.552 µM (active); in the test on UACC-62 it was 2.43 µM (inactive); in the test on COLO 205, 2.06 µM (inactive). In addition, the GI50 was 1.96 µM (inactive) in the test on K562; 2.07 µM (inactive) in the test with Hs-578T; 0.726 µM (active) in the test with DU-145; 0.573 µM (active) in the test with OVCAR-3; 2.26 µM (inactive) in the test on PC-3; 0.646 µM (active) in the test with SF-268. In addition, the GI50 in the test on SNB-75 was 3.61 µM (inactive); with SK-MEL-28, 4.34 µM (inactive); in the test with HOP-62 it was 0.933 µM (active); in the test with MDA-MB-435, 3.19 µM (inactive); in the test on RXF 393, 0.402 µM (active); in the test on NCI-H522, 0.574 µM (active). Also, the GI50 in the test with NCI/ADR-RES is 1.77 µM (inactive).
`COc1ccc2c(c1)-c1nc(=O)n(CCCN(C)C)c3ccc([N+](=O)[O-])c(c13)N2`: the GI50 in the test on SK-OV-3 is 1.29 µM (inactive); in the test on IGROV-1 it was 0.413 µM (active); with MOLT-4 it was 0.215 µM (active); in the test on SN12C, 0.752 µM (active); in the test on UACC-62 it was 8.87 µM (inactive); in the test on COLO 205, 0.752 µM (active). In addition, the GI50 in the test on K562 is 0.0811 µM (active); in the test on Hs-578T, 1.56 µM (inactive); in the test on DU-145, 0.776 µM (active); in the test on OVCAR-3, 2.13 µM (inactive); with PC-3, 0.792 µM (active); in the test on SF-268, 0.789 µM (active). The GI50 is 0.448 µM (active) in the test with MCF7; 1.28 µM (inactive) with SNB-75; 1.19 µM (inactive) in the test on SK-MEL-28; 0.675 µM (active) with HOP-62; 2.6 µM (inactive) in the test with MDA-MB-435; 0.368 µM (active) with NCI-H522. In the test on NCI/ADR-RES, the GI50 is 1.88 µM (inactive).
Turning to `COc1ccc2c(c1)OC1c3ccccc3OCC21` (centres undefined), the GI50 with SK-OV-3 was > 100 µM (inactive); in the test on IGROV-1, > 100 µM (inactive); with MOLT-4, 27.7 µM (inactive); in the test with SN12C, > 100 µM (inactive); in the test with UACC-62, > 100 µM (inactive); in the test on COLO 205, > 100 µM (inactive). Moreover, the GI50 in the test with K562 was 31.8 µM (inactive); in the test on Hs-578T, > 100 µM (inactive); with DU-145, > 100 µM (inactive); in the test on OVCAR-3, 72.1 µM (inactive); in the test with PC-3, > 100 µM (inactive); in the test with SF-268, 32.8 µM (inactive). Further, the GI50 in the test with MCF7 was 88.1 µM (inactive); in the test on SNB-75, 27.4 µM (inactive); with SK-MEL-28, > 100 µM (inactive); in the test on HOP-62 it was > 100 µM (inactive); in the test with MDA-MB-435 it was 30.7 µM (inactive); in the test on RXF 393, 77.4 µM (inactive). Further, in the test with NCI/ADR-RES, the GI50 is 60.3 µM (inactive).
Consider `COc1cc(NS(C)(=O)=O)ccc1Nc1c2ccccc2nc2ccccc12` [AMSACRINE], for which the GI50 is 0.398 µM (active) with SK-OV-3; 2.4 µM (inactive) in the test with IGROV-1; 0.0332 µM (active) with MOLT-4; 0.131 µM (active) with SN12C; 0.285 µM (active) in the test on UACC-62; 2.86 µM (inactive) with COLO 205. Moreover, the GI50 in the test with K562 is 0.902 µM (active); in the test with Hs-578T, 1.79 µM (inactive); in the test on OVCAR-3, 2.67 µM (inactive); in the test on PC-3, 0.415 µM (active); in the test with SF-268, 0.415 µM (active); with MCF7 it was 0.103 µM (active). Moreover, the 50% growth inhibitory concentration (GI50) was 0.403 µM (active) with SNB-75; 2.59 µM (inactive) in the test on SK-MEL-28; 0.084 µM (active) in the test with HOP-62; 4.54 µM (inactive) in the test on MDA-MB-435; 1.55 µM (inactive) in the test with RXF 393; 0.668 µM (active) with NCI-H522. Further, the GI50 in the test on NCI/ADR-RES was 3.42 µM (inactive).
Consider `CC(C)=CCC/C(C)=C/CC/C(C)=C/CSc1ccccc1C(=O)O` [SALIRASIB], for which the GI50 in the test on SK-OV-3 was 25.4 µM (inactive); in the test on IGROV-1, 16.5 µM (inactive); with MOLT-4, 23.5 µM (inactive); in the test on SN12C it was 23.3 µM (inactive); with UACC-62, 17.7 µM (inactive); in the test with COLO 205, 23.6 µM (inactive). The GI50 with K562 is 36.6 µM (inactive); in the test with Hs-578T it was 17.8 µM (inactive); in the test with DU-145, 18.2 µM (inactive); in the test with OVCAR-3, 16.5 µM (inactive); in the test with PC-3 it was 19.3 µM (inactive); in the test with SF-268 it was 16.6 µM (inactive). The GI50 in the test with MCF7 is 24.8 µM (inactive); with SNB-75, 19.1 µM (inactive); with SK-MEL-28, 21.1 µM (inactive); in the test with HOP-62, 16.9 µM (inactive); with MDA-MB-435, 20 µM (inactive); in the test with RXF 393 it was 27.2 µM (inactive). The GI50 with NCI/ADR-RES was 22.5 µM (inactive).
As to `O=C(/C=C/c1ccc(Cl)cc1)Oc1ccc(/C=C2\CCCCC2=O)cc1`, the GI50 was > 100 µM (inactive) with IGROV-1; 28.8 µM (inactive) in the test on MOLT-4; > 100 µM (inactive) with SN12C; > 100 µM (inactive) in the test with UACC-62; > 100 µM (inactive) in the test on COLO 205; > 100 µM (inactive) with Hs-578T. For the same molecule, the GI50 in the test with DU-145 was > 100 µM (inactive); in the test with OVCAR-3, > 100 µM (inactive); in the test on PC-3, > 100 µM (inactive); in the test on SF-268 it was 69.7 µM (inactive); in the test on MCF7 it was > 100 µM (inactive); in the test with SNB-75, > 100 µM (inactive). The GI50 is > 100 µM (inactive) with SK-MEL-28, > 100 µM (inactive) in the test on HOP-62, > 100 µM (inactive) with MDA-MB-435 and 50.8 µM (inactive) with NCI-H522.
For the molecule `Cc1ccc2nc(CN3CCCC(O)C3)cc(=O)n2c1` (centres undefined), the GI50 in the test on SK-OV-3, in the test on IGROV-1, in the test on MOLT-4, with SN12C, in the test on UACC-62 and in the test on COLO 205 was > 100 µM (inactive) each time. The GI50 in the test on K562, with Hs-578T, in the test with DU-145, with OVCAR-3, in the test on PC-3 and with SF-268 was > 100 µM (inactive) each time. In addition, the GI50 in the test on MCF7, in the test with SNB-75, in the test with SK-MEL-28, in the test with HOP-62, with MDA-MB-435 and in the test on NCI-H522 was > 100 µM (inactive) throughout. Also, the GI50 with NCI/ADR-RES is > 100 µM (inactive).
In the case of `Cc1nc2c(=O)n(C)c(=O)n(C)c2o1`, the GI50 in the test with SK-OV-3, in the test with IGROV-1, in the test with MOLT-4, in the test on SN12C, with UACC-62 and in the test on COLO 205 was > 100 µM (inactive) throughout. In addition, the GI50 with K562 was > 100 µM (inactive); with Hs-578T it was > 100 µM (inactive); with OVCAR-3, > 100 µM (inactive); in the test on PC-3, > 100 µM (inactive); in the test on SF-268, > 100 µM (inactive); in the test on MCF7, > 10 µM (inactive). Moreover, the GI50 in the test with SNB-75, with HOP-62, in the test on MDA-MB-435, in the test on RXF 393, in the test with NCI-H522 and with NCI/ADR-RES was > 100 µM (inactive) in each case.
As to `Cc1cccc(C(C)(C)C)c1NC(=O)/C(Cc1nc2ccc([N+](=O)[O-])cc2nc1O)=N\NC(=O)C[N+](C)(C)C`, the GI50 with SK-OV-3 is > 100 µM (inactive); in the test on IGROV-1, > 100 µM (inactive); in the test on MOLT-4, 38.5 µM (inactive); in the test with SN12C it was > 100 µM (inactive); in the test with UACC-62, > 100 µM (inactive); with COLO 205 it was 71.8 µM (inactive). The GI50 was > 100 µM (inactive) with K562; > 100 µM (inactive) in the test on Hs-578T; > 100 µM (inactive) in the test on DU-145; 52 µM (inactive) in the test with OVCAR-3; 62.5 µM (inactive) in the test on PC-3; > 100 µM (inactive) in the test on SF-268. Besides, the GI50 in the test with MCF7 is 74.6 µM (inactive); in the test with SNB-75 it was > 100 µM (inactive); in the test on SK-MEL-28, > 100 µM (inactive); in the test with MDA-MB-435 it was > 100 µM (inactive); with NCI-H522, 17.4 µM (inactive); with NCI/ADR-RES it was 60.5 µM (inactive).
Turning to `O=C(Cn1c2ccc(Br)cc2c2nc3ccccc3nc21)Nc1ccccc1`, the GI50 was > 100 µM (inactive) in the test with SK-OV-3; 15.3 µM (inactive) in the test with IGROV-1; > 100 µM (inactive) with MOLT-4; 42.6 µM (inactive) in the test with SN12C; 48.1 µM (inactive) in the test with UACC-62; 50.6 µM (inactive) in the test with COLO 205. Moreover, the GI50 is 38.8 µM (inactive) in the test with K562; 26.7 µM (inactive) in the test on Hs-578T; 59.2 µM (inactive) in the test with DU-145; > 100 µM (inactive) in the test on OVCAR-3; 18 µM (inactive) with PC-3; 45.2 µM (inactive) with SF-268. Moreover, the GI50 is 21.3 µM (inactive) in the test with SNB-75; 36.1 µM (inactive) in the test with SK-MEL-28; 27.9 µM (inactive) in the test with HOP-62; 51.4 µM (inactive) in the test with MDA-MB-435; 20.2 µM (inactive) with RXF 393; 21.6 µM (inactive) in the test on NCI-H522. Besides, in the test on NCI/ADR-RES, the GI50 was 20 µM (inactive).
